Experimental data published in ChEMBL document CHEMBL1177777, “Novel pyridobenzimidazole derivatives exhibiting antifungal activity by the inhibition of beta-1,6-glucan synthesis” (2010).
Converted amounts (≈) assume the structure as drawn. The source made the active and inactive calls. The calls are words filed in the database; no cut-off is given here.

What was measured:
[1] = system: Candida tropicalis; experiment: Antifungal activity against Candida tropicalis TIMM 0313 after 24 hrs by microdilution method; type: functional; details: TIMM 0313, 24 h
[2] = system: Candida albicans; experiment: Antifungal activity against Candida albicans ATCC 24433 after 24 hrs by microdilution method; type: functional; details: ATCC 24433, 24 h
[3] = system: Aspergillus fumigatus; experiment: Antifungal activity against Aspergillus fumigatus ATCC 36607 after 24 hrs by microdilution method; type: functional; details: ATCC 36607, 24 h
[4] = system: Nakaseomyces glabratus; experiment: Antifungal activity against Candida glabrata IFO 0622 after 24 hrs by microdilution method; type: functional; details: IFO 0622, 24 h
[5] = system: Pichia kudriavzevii; experiment: Antifungal activity against Candida krusei TIMM 0269 after 24 hrs by microdilution method; type: functional; details: TIMM 0269, 24 h
[6] = system: Aspergillus fumigatus; experiment: Antifungal activity against Aspergillus fumigatus ATCC 36607 assessed as inhibition of beta-1,6-glucan synthesis; type: functional, organism-based
[7] = system: Nakaseomyces glabratus; experiment: Antifungal activity against Candida glabrata IFO 0622 assessed as inhibition of beta-1,6-glucan synthesis; type: functional, organism-based
[8] = system: Candida tropicalis; experiment: Antifungal activity against Candida tropicalis TIMM 0313 assessed as inhibition of beta-1,6-glucan synthesis; type: functional, organism-based
[9] = system: Candida albicans; experiment: Antifungal activity against Candida albicans ATCC 24433 assessed as inhibition of beta-1,6-glucan synthesis; type: functional, organism-based
[10] = system: Pichia kudriavzevii; experiment: Antifungal activity against Candida krusei TIMM 0269 assessed as inhibition of beta-1,6-glucan synthesis; type: functional, organism-based

| Compound | MIC [1] [µg/mL] | MIC [2] [µg/mL] | MIC [3] [µg/mL] | MIC [4] [µg/mL] | MIC [5] [µg/mL] | inhibition [6] | inhibition [7] | inhibition [8] | inhibition [9] | inhibition [10] |
| --- | --- | --- | --- | --- | --- | --- | --- | --- | --- | --- |
| OC(Cn1cncn1)(Cn1cncn1)c1ccc(F)cc1F [FLUCONAZOLE] | 0.25 (≈ 0.816 µM) | 0.25 (≈ 0.816 µM) | > 64 | 2 (≈ 6.53 µM) | 16 (≈ 52.2 µM) |  |  |  |  |  |
| CN(C)[C@H]1CCN(c2c(-c3ccccc3)cc(C#N)c3nc4ccccc4n23)C1 | 8 (≈ 21 µM) | > 128 | > 128 | ≤ 0.125 | 2 (≈ 5.24 µM) |  |  |  |  |  |
| CCCNc1c(CC)c(C)c(C#N)c2nc3ccccc3n12 | > 128 | > 128 | > 128 | > 128 | > 128 |  |  |  |  |  |
| CCc1c(C)c(C#N)c2nc3ccccc3n2c1NCCCN(C)C | > 128 | > 128 | > 128 | > 128 | > 128 |  |  |  |  |  |
| Cc1c(-c2ccccc2)c(N2CC[C@H](N(C)C)C2)n2c(nc3ccccc32)c1C#N | 0.5 (≈ 1.26 µM) | > 128 | > 128 | ≤ 0.125 | ≤ 0.125 | Active | Active | Active | Active | Active |
| CCc1c(C)c(C#N)c2nc3ccccc3n2c1N1CCC(N(C)C)CC1 | > 128 | > 128 | > 128 | > 128 | > 128 |  |  |  |  |  |
| CCc1c(-c2ccccc2)c(C#N)c2nc3ccccc3n2c1N1CC[C@H](N(C)C)C1 | > 128 | > 128 | > 128 | > 128 | > 128 |  |  |  |  |  |
| CCc1c(C)c(C#N)c2nc3ccccc3n2c1N1CCCC1 | > 64 | > 64 | > 64 | > 64 | > 64 |  |  |  |  |  |
| CCc1c(C)c(C(N)=O)c2nc3ccccc3n2c1NCCN(C)CC | > 128 | > 128 | > 128 | > 128 | > 128 |  |  |  |  |  |
| CCc1c(C)c(C#N)c2nc3ccccc3n2c1N1CC[C@@H](N(C)C)C1 | 64 (≈ 184 µM) | > 128 | > 128 | 1 (≈ 2.88 µM) | 16 (≈ 46 µM) |  |  |  |  |  |
| CCc1c(C)c(C#N)c2nc3ccccc3n2c1N1CCN(C)CC1 | > 32 | > 32 | > 32 | > 32 | > 32 |  |  |  |  |  |
| Cc1cc(N2CC[C@H](N(C)C)C2)n2c(nc3ccccc32)c1C#N | > 128 | > 128 | > 128 | 8 (≈ 25 µM) | 32 (≈ 100 µM) |  |  |  |  |  |
| CCc1c(C)c(C#N)c2nc3ccccc3n2c1NCCN(CC)CC | > 128 | > 128 | > 128 | 1 (≈ 2.86 µM) | 4 (≈ 11.4 µM) |  |  |  |  |  |
| CCCCc1c(C)c(C#N)c2nc3ccccc3n2c1N1CC[C@H](N(C)C)C1 | 0.5 (≈ 1.33 µM) | > 128 | > 128 | ≤ 0.125 | 0.5 (≈ 1.33 µM) |  |  |  |  |  |
| CC(=O)OCCc1c(C)c(C#N)c2nc3ccccc3n2c1N1CC[C@H](N(C)C)C1 | 16 (≈ 39.5 µM) | > 128 | > 128 | 1 (≈ 2.47 µM) | 4 (≈ 9.86 µM) |  |  |  |  |  |
| Cc1c(F)c(N2CC[C@H](N(C)C)C2)n2c(nc3ccccc32)c1C#N | > 128 | > 128 | > 128 | 4 (≈ 11.9 µM) | 16 (≈ 47.4 µM) |  |  |  |  |  |
| Cc1c(CCO)c(N2CC[C@H](N(C)C)C2)n2c(nc3ccccc32)c1C#N | > 128 | > 128 | > 128 | 32 (≈ 88 µM) | 16 (≈ 44 µM) |  |  |  |  |  |
| CCc1c(C)c(C#N)c2nc3ccccc3n2c1NCCN | > 128 | > 128 | > 128 | 4 (≈ 13.6 µM) | 32 (≈ 109 µM) |  |  |  |  |  |
| CCc1c(C)c(C#N)c2nc3ccccc3n2c1N1CC[C@H](N(C)C)C1 | 32 (≈ 92.1 µM) | > 128 | > 128 | 0.5 (≈ 1.44 µM) | 2 (≈ 5.76 µM) |  |  |  |  |  |
